# Assay results as given in patent US20240067603A1, “CUBANYL BIGUANIDE COMPOUNDS” (REGENTS OF THE UNIVERSITY OF MINNESOTA, priority 2020, published 2024).
# pKd: −log10 of the molar value. Entries after “also recorded” stand apart in the source; their conditions may differ.
# Tests used:
# MCF-7 cells [1] = experiment: TMRE mitochondrial membrane potential in MCF-7 cells; assay type: cell-based, human; conditions: 10 μM, FIGS. 4A-4B
# Description: FIG. 4A. Effect of HCB on mitochondrial cross membrane potential Δψ in MCF-7 cells. MCF-7 cells were seeded at 20,000 cells/well into a clear bottom black 96 well microplate. After treatments were added for 2 hours (FCCP control for 10 minutes), TMRE (tetramethylrhodamine, ethyl ester, Ex/Em 549/575) was added to a final concentration of 400 nM and incubation continued for additional 30 minutes. Media was removed and cells washed twice with PBS and 100 ul of PBS was added in the end. TMRE fluorescence was then measured with a plate reader. Results are reported as mean fluorescence intensity±S.D. (n=8, * indicates statistically significant difference from the DMSO control).
# FIG. 4B. Effect of DCB and HCB on mitochondrial trans-membrane potential Δψ in MCF-7 cells. […] TMRE fluorescence was then measured with a plate reader. Results are reported as mean fluorescence intensity±S.D. (n=8, * indicates statistically significant difference from the DMSO control).
# Mitochondrial cross membrane potential (Δψ) alteration in MCF-7 cells were measured by monitoring Δψ sensitive TMRE fluorescence intensity. […] TMRE fluorescence was then measured with a plate reader. Results are reported as mean fluorescence intensity±S.D. (n=8, * indicates statistically significant difference from the DMSO control).
# TMRE Δψm measurement. […] Fluorescence was read at Ex 549 nm/Em 575 nm. […]
# ERα = experiment: Nuclear translocation of ERα in MCF-7 cells; assay type: cell-based, human; conditions: 10 μM, 2 hours, FIG. 6
# Description: FIG. 6. […] A. representative images (Blue: nuclei; Red: ERα) from an experiment. B. Percentage change of nuclear ERα density normalized to nuclear DNA stained by Hoechst. MCF-7 cells (1.5×10^4 cells/well) were seeded on uSlide (8 wells, Ibidi, cat #80826) and cultured with complete culture medium (MEM medium with Earle's salts & L-glutamine) containing 10% FBS, 10 mM HEPES, 2 mM glutamine and 100 U penicillin and 100 U streptomycin for almost 70 hours. Then the cells were starved in serum, phenol red and antibiotics free MEM medium for almost 16 hours, followed with HCB (10 μM) or vehicle (0.01% DMSO) treatment for 2 hours in starvation medium. Then the cells were fixed, permeabilized and probed with monoclonal antibody against ERα (Abcam, Cat #16660, primary antibody) and Texas Red-conjugated goat anti rabbit IgG (Thermo Fisher Scientific, Cat #T-6391, secondary antibody). Nuclei were stained with Hoechst dye (Thermo Scientific, Cat #62249). The nuclear ERαas were analyzed with confocal microscopy. Four sites per well were selected randomly for collecting the image data. The density of fluorescence was measured by ImageJ. […] Intensities of lights in each ROI were measured in the blue channel (nuclei) and red (Texas red, estrogen receptor α) channel. […] Results normalized to control are expressed as means±S.D. (n=7). […]
# CYP3A4 = CYP3A4 (Homo sapiens, UniProt P08684); experiment: CYP3A4 binding by Soret band spin shift analysis; conditions: FIG. 16, read-out: estimated Kd
# CYP3A4, sequence (P08684 with tags, fused parts or gaps): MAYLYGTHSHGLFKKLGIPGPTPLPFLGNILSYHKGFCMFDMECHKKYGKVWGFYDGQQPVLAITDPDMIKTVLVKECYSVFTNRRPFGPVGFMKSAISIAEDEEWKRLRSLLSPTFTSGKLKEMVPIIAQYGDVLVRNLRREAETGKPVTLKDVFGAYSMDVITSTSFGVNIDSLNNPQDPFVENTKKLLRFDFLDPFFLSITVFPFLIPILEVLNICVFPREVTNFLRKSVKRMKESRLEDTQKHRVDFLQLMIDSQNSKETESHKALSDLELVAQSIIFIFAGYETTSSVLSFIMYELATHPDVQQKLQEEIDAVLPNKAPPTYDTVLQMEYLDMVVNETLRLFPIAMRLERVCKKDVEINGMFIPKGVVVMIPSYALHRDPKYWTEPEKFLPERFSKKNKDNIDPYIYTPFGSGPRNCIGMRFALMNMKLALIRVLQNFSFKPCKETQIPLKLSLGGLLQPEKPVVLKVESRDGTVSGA
# Description: HCB induces a low-to-high spin transition in 3A4, meaning that it binds within the active site near the heme (FIG. 16).
# A. HBB binds soluble CYP3A4 Δ3-22, dependent on the heme iron. The HBB binding spectrum is shown in red. Control spectra with dithionite reduction (blue) and CO adduct formation (green) are shown as well as untreated CYP3A4 Δ3-22 (black). B. HBB docked to truncated CYP3A4 Δ3-22 induces a low to high spin shift (left) with a Ks=74±7 μM (right). (FIG. 16)
# MCF-7 cells [2] = experiment: Oxygen consumption rate (OCR), Seahorse XFe, MCF-7; assay type: cell-based, human
# Description: FIGS. 3A-3B. Effects of DCB (FIG. 3B) and HCB (FIG. 3A) on MCF-7 cells respiration. MCF-7 cells were seeded at 25,000 cells/well into a 96-well XF96 cell microplate. Growth media was replaced with 150 μL metabolism assay media the next day and cells were incubated CO2 free for 1 hour before the measurement of oxygen consumption rate (OCR) every seven minutes by a Seahorse XFe analyzer. Drugs were injected into the media after the fifth measurement (indicated by time point A and the dashed line). Results are reported as mean of percent of base OCR (OCR of the fifth measurement)±S.D. (n=12 for DMSO and 16 for treatment groups).
# Measurement of oxygen consumption rate (OCR). Cells were maintained in growth medium consisting of 10% FBS at 37° C. with 5% CO2 and seeded at 25,000 cells per well in a 96-well XF96 cell culture microplates (Agilent, Santa Clara, CA). An 96 well XF sensor cartridge was hydrated and equilibrated with 200 ul calibrant in each well at 37° C. without CO2 overnight. […] OCRs were measured periodically and can be reported in pmoles/minute or normalized against baseline measurements before treatment.
smiles,measurement,setting,value
"CCCCCCNC(=N)NC(=N)NCC12C3C4C5C3C1C5C42 (centres unmarked) [HCB, Hexyl Cubanomethyl Biguanide]",effect on mitochondrial membrane potential,MCF-7 cells [1],inhibited the mitochondrial membrane potential
same,nuclear translocation of estrogen receptor (ER-α),ERα,significantly decrease; also recorded: decreases nuclear translocation of ERα
same,pKd,CYP3A4,4.13
same,effect on oxidative phosphorylation (OCR),"MCF-7 cells [2]; 10 μM, MCF-7 cells, FIGS. 3A-3B",inhibited oxidative phosphorylation
same,OCR Inhibition [HCB] (uM) v vs. control (P < 0.05),MCF-7 cells [2]; MCF-7,10 µM
